Results reported in US12435091B2, “RNA-binding protein multimerization inhibitors and methods of use thereof” (THE UAB RESEARCH FOUNDATION, priority 2020, dated 2025).
≈ marks a conversion by molar mass, not a printed value. Where two headings read alike, the source gives them in different places.

Assays:
[1] = Mouse liver microsomal stability in vitro; assay type: in vitro ADME; details: liver microsomes, read-out: MLM t1/2
Method: (§3) Selected compounds were assessed for their aqueous solubility, Log D and mouse and human liver microsomal stability.

[2] = aqueous solubility at pH 7.4; assay type: physicochemical; details: for solubility: aqueous medium at pH 7.4, pH 7.4, aqueous buffer, read-out: Sol @ pH 7.4
Method: as §3

HuR = biological target: T1, HuR (Homo sapiens, UniProt Q15717); assay: cell-based split firefly luciferase-HuR dimerization assay; details: for IC50: read-out: HuR IC50
T1 construct: expressed in transfected cells; host or cells: U251 glioma cells, doxycycline-inducible constructs
Method: (§1) The oncogenic activity of HuR is driven by subcellular localization into the cytoplasm and formation of multimers of HuR. To develop cell based assays to characterize the ability of small molecules to disrupt this process, a split luciferase assay detecting the formation of HuR dimers was developed. The assays were performed in 96 well plates with clear bottom (Corning Inc., Corning, NY). Cells with designed constructs (30,000-50,000 in number) were plated per well; the constructs were induced by doxycycline (0.75 ug/ml) for 48 hours. The evaluated compounds at different concentrations and the corresponding vehicle as the control were administered for 6 hours. The luminescence signals were detected by using InfinitiM200 plate reader (TECAN, Morrisville, NC) in the presence of the luciferase substrate luciferin (D-Luciferin, potassium salt), which was purchased from GoldBio (St Louis, MO). A multichannel pipette (XL 3000I™, Denville Scientific, South Plainfield, NJ) was used in all procedures to ensure the experiment quality.
The assay used the coding sequence of HuR in frame with the N-terminus of firefly luciferase or the C-terminus as depicted in FIG. 2A. When HuR forms dimers in this case, luciferase is generated and with luciferin present, luminescence is generated.
(§2) Squares represent luminescence signal from reporter representing HuR dimers (U251 cells co-expressing HuR-Nluc and HuR-Cluc constructs); circles represent luminescence signal from control reporter (U251 cells expressing Fluc construct). Results are shown as mean+SD.

in vitro = details: human, liver microsomes
Method: as §3

[3] = system: U251 cells expressing Fluc construct; assay: control Fluc (full length luciferase) reporter assay in U251 cells; assay type: cell-based; details: for inhibition at 50 µM: Concn 50 uM; for inhibition at 100 µM: Concn 100 uM
Method: as §1, with “quality. […]” for “quality.”
as §2

Log D at pH 7.4 = assay type: physicochemical
Method: as §3

[4] = U251 cells co-expressing HuR-Nluc and HuR-Cluc, 6 hours of treatment
[5] = split luciferase HuR dimerization assay, compounds administered for 6 hours
[6] = Homo sapiens, U-251, 6 h, read-out: Fluc Imax % Inh

T1 sequence (Q15717 whole entry): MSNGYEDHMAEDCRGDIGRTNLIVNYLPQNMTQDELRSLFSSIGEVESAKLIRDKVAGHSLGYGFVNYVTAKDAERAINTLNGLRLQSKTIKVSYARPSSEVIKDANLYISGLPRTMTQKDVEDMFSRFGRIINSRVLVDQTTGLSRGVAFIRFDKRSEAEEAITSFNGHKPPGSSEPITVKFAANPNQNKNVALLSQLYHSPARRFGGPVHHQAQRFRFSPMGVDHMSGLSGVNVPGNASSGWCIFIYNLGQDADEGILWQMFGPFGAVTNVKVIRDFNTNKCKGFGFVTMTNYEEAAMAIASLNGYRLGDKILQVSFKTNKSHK

Row | HuR N/C Imax % Inh (HuR; Concn 50 uM) [%] | IC50 (HuR; [4]) [µM] | IC50 (HuR; [5]) [µM] | Structure (SMILES) | inhibition at 50 µM [3, 6] [%] | further results
1 | 91 | 2.1 | 2.1 | FC1(F)CCC(Nc2ccc3ncc(-c4ccc5[nH]ncc5c4)n3n2)CC1 [Compound 46, N-(4,4-Difluorocyclohexyl)-3-(1H-indazol-5-yl)imidazo[1,2-b]pyridazin-6-amine] | 17 | half-life [1]: 4.4 min; solubility [2]: 1 µM (≈ 0.368 µg/mL); half-life (in vitro): 11.5 min; logD (Log D at pH 7.4): > 4.16
2 | 93 | 1.2 | 1.2 | Cn1ncc2ccc(-c3cnc4ccc(NC5CCOCC5)nn34)cc21 [Compound 20] | 35 | half-life [1]: 8.1 min; solubility [2]: 79.6 µM (≈ 27.7 µg/mL); half-life (in vitro): 11.6 min; logD (Log D at pH 7.4): 2.9
3 |  | 2.2 | 2.2 | CCCN(C)c1ccc2ncc(-c3ccc4cn[nH]c4c3)n2n1 [Compound 24, 3-(1H-Indazol-6-yl)-N-methyl-N-propylimidazo[1,2-b]pyridazin-6-amine] |  | half-life [1]: 3.1 min; solubility [2]: 10.9 µM (≈ 3.34 µg/mL); HuR N/C Imax % Inh (HuR; Concn 100 uM): 93%; half-life (in vitro): 9.7 min; inhibition at 100 µM [3, 6]: 10%; logD (Log D at pH 7.4): > 4.18
4 | 85 | 5 |  | c1cc2cn[nH]c2cc1-n1nnc2cnc(NC3CCOCC3)nc21 [Compound 4, 3-(1H-Indazol-6-yl)-N-(tetrahydro-2H-pyran-4-yl)-3H-[1,2,3]triazolo[4,5-d]pyrimidin-5-amine] | 36 | aqueous solubility (in words) [2]: improved aqueous solubility
5 |  |  |  | CN(c1ccc2ncc(-c3ccc4cn[nH]c4c3)n2n1)C1CCC(F)(F)CC1 [Compound 29] |  | half-life [1]: 15.3 min; solubility [2]: 77.3 µM (≈ 29.6 µg/mL); HuR IC50 (HuR; [5]): Insoluble^b; half-life (in vitro): 82.8 min; logD (Log D at pH 7.4): 0.9
6 | 93 | 0.19 | 0.19 | FC(F)(F)CNc1ccc2ncc(-c3ccc4[nH]ncc4c3)n2n1 [Compound 50, 3-(1H-Indazol-5-yl)-N-(2,2,2-trifluoroethyl)imidazo[1,2-b]pyridazin-6-amine] | 26 | half-life [1]: 2.6 min; solubility [2]: 2.6 µM (≈ 0.864 µg/mL); half-life (in vitro): 12.1 min; logD (Log D at pH 7.4): > 4.15
7 | 87 | 7 | 7 | c1cc2[nH]ncc2cc1-c1cnc2ccc(N3CCOCC3)nn12 [Compound 51, 4-(3-(1H-Indazol-5-yl)imidazo[1,2-b]pyridazin-6-yl)morpholine] | 27 | 
8 | 82 |  | 3 | c1cc2cn[nH]c2cc1-c1cnc2ccc(OC3CCOCC3)nn12 [Compound 58] | 23 | 
9 | 90 | 0.7 | 0.7 | CCCNc1ccc2ncc(-c3ccc4[nH]ncc4c3)n2n1 [Compound 48] | 29 | half-life [1]: 2.2 min; solubility [2]: 3.2 µM (≈ 0.936 µg/mL); half-life (in vitro): 6.1 min
10 | 87 | 8 | 8 | CN(c1ccc2ncc(-c3ccc4[nH]cnc4c3)n2n1)C1CCOCC1 [Compound 37, 3-(1H-Benzo[d]imidazol-5-yl)-N-methyl-N-(tetrahydro-2H-pyran-4-yl)imidazo[1,2-b]pyridazin-6-amine] | 14 | 
11 | 0 |  |  | CCC(C)NS(=O)(=O)c1ccc2oc(=O)ccc2c1 (stereo not shown) [SRI-43652] | 0 | 
12 | 89 | > 25 |  | CN1CCN(Cc2ccc(-c3cnc4[nH]cc(-c5ccc6[nH]ccc6c5)c4c3)cc2)CC1 [SRI-41647] | 4 | 
13 | 93 | 4.5 |  | c1nn(C2CCOCC2)cc1Nc1ncc2nnn(-c3ccc4cn[nH]c4c3)c2n1 [Compound A-92] | 32 | maximum inhibition of HuR dimerization (HuR; after 6 hours of cell treatment): 93±2%; decrease of luminescence signal from cells overexpressing the control Fluc construct ([3]; 6 hours, represents the cytotoxic effect): 32±7%
14 |  |  | > 50 | Cc1n[nH]c2cc(-c3cnc4ccc(N(C)C5CCOCC5)nn34)ccc12 [Compound 32, N-Methyl-3-(3-methyl-1H-indazol-6-yl)-N-(tetrahydro-2H-pyran-4-yl)imidazo[1,2-b]pyridazin-6-amine] |  | half-life [1]: 7.3 min; solubility [2]: < 1 µM; half-life (in vitro): 9 min; logD (Log D at pH 7.4): > 4.35
15 | 89 |  | 2 | c1cc2[nH]ncc2cc1-c1cnc2ccc(OC3CCOCC3)nn12 [Compound 57, 3-(1H-Indazol-5-yl)-6-((tetrahydro-2H-pyran-4-yl)oxy)imidazo[1,2-b]pyridazine] | 12 | 
16 |  | > 100 |  | Cc1cc(-c2cnn3c(NC[C@H]4C[C@@](C)(O)C4)cc(Oc4cccnc4)nc23)ccc1C(=O)NC1CC1 [SRI-41646] |  | HuR N/C Imax % Inh (HuR; Concn 100 uM): 3%; inhibition at 100 µM [3, 6]: 15%
17 |  |  | 28 | CN(c1ccc2ncc(-c3ccc4cc[nH]c4c3)n2n1)C1CCOCC1 [Compound 13] |  | half-life [1]: 5.6 min; solubility [2]: 12.8 µM (≈ 4.45 µg/mL); half-life (in vitro): 6.8 min; logD (Log D at pH 7.4): 2.2
18 | 0 |  |  | O=C(c1ccc(=O)[nH]c1)N1CCN(C(=O)C2CC2c2ccccc2)CC1 (stereo not shown) [SRI-43653] | 0 | 
19 | 28 | > 50 |  | O=C(C1CCCC1)N1CCN(C(=O)C2CC2c2ccc3c(c2)OCO3)CC1 (stereo not shown) [SRI-43655] | 10 | 
20 | 0 |  |  | O=C(c1ccc2nsnc2c1)N1CCN(C(=O)C2CC2c2cccs2)CC1 (stereo not shown) [SRI-43650] | 0 | 
21 | 90 | 1.2 | 1.2 | CN(c1ccc2ncc(-c3cnc4[nH]ncc4c3)n2n1)C1CCOCC1 [Compound 55, N-Methyl-3-(1H-pyrazolo[3,4-b]pyridin-5-yl)-N-(tetrahydro-2H-pyran-4-yl)imidazo[1,2-b]pyridazin-6-amine] | 10 | 
22 | 57 | 40 |  | CN(CCNc1ccc2ncc(-c3ccc(C(N)=O)cc3)n2n1)C(=O)OC(C)(C)C [SRI-43415] | 9 | 
23 |  |  | 0.3 | CN(c1ccc2ncc(-c3ccc4[nH]ncc4c3)n2n1)C1CCOCC1 [Compound 40, 3-(1H-Indazol-5-yl)-N-methyl-N-(tetrahydro-2H-pyran-4-yl)imidazo[1,2-b]pyridazin-6-amine] |  | HuR N/C Imax % Inh (HuR; Concn 25 uM): 90%; inhibition at 25 µM ([3]; Homo sapiens, U-251, 6 h, Concn 25 uM, read-out: Fluc Imax % Inh): 23%
24 |  |  |  | CN(c1cnn(C2CCOCC2)c1)c1ncc2nnn(-c3ccc4cn[nH]c4c3)c2n1 [Compound 3, 3-(1H-Indazol-6-yl)-N-methyl-N-(1-(tetrahydro-2H-pyran-4-yl)-1H-pyrazol-4-yl)-3H-[1,2,3]triazolo[4,5-d]pyrimidin-5-amine] |  | aqueous solubility (in words) [2]: poor aqueous solubility
25 |  | > 100 |  | FC(F)(F)c1nnc2ccc(NCCc3c[nH]c4ccccc34)nn12 [SRI-41639] |  | HuR N/C Imax % Inh (HuR; Concn 100 uM): 49%; inhibition at 100 µM [3, 6]: 17%
26 | 82 | 20 to 22 |  | Brc1cnc2ccc(NC3CCOCC3)nn12 [SRI-42219] | 32 | 

Row | Structure (SMILES) | HuR N/C Imax % Inh (HuR; Concn 50 uM) [%] | IC50 (HuR; [4]) [µM] | IC50 (HuR; [5]) [µM] | inhibition at 50 µM [3, 6] [%] | further results
27 | COc1ncccc1-c1cnn2ccc(N3CCN(C(=O)OC(C)C)CC3)nc12 [SRI-43414] | 45 | > 50 |  | 28 | 
